Assay results reported in patent publication US5539127A, “7-substituted oxa- or azasteroid compound” (Teikoku Hormone Mfg. Co., Ltd., priority 1992, dated 1996).
Counter-ions that a name gives are not always drawn.

Assays:
aromatase [1] = target: T1, aromatase (Homo sapiens, UniProt P11511); test: Assay of aromatase-inhibiting action (in vitro), human placental microsome, 3H2O release from [1,2-3H]androstenedione; format: biochemical; conditions: 2 μM [1,2-3H]androstenedione, 180 μM NADPH, pH 7.5, 37° C., 20 minutes
T1 construct: 150 μg of freeze dried human placental microsome; from tissue; host or cells: human placenta, microsomes
T1 sequence (P11511 1-503): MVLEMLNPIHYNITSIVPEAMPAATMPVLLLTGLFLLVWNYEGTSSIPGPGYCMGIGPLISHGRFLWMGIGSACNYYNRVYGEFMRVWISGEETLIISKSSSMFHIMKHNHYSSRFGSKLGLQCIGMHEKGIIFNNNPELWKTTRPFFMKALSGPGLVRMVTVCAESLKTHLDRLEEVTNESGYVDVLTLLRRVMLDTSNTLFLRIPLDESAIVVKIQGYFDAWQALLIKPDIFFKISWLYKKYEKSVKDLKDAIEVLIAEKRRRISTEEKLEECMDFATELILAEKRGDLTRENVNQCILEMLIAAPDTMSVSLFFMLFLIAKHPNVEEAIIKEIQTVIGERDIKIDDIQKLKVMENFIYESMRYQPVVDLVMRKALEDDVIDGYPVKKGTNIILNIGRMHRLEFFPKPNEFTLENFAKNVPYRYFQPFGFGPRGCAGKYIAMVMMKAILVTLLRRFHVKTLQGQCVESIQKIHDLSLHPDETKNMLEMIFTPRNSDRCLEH
Procedure: (1) Assay of aromatase-inhibiting action (in vitro)
Human placental microsome (centrifuged at 105,000×g for 60 minutes) was prepared, according to the method of Ryan (The Journal of Biological Chemistry, 234, 268-272, (1959)). The microsome was used after it was washed twice with 0.5 mM dithiothreitol solution, freeze dried, and stored at -20° C.
The aromatase-inhibiting action was assayed according to the method developed by Tompson and Siiteri (Journal of Biological Chemistry, 249, 5373-5378, (1974)). Namely, the method comprises quantitatively determining ^3 H2 O released through aromatization of [1,2-^3 H]androstenedione. The experiment using the enzyme was performed in 67 mM phosphate buffer (pH 7.5) so that the final amount of the incubation solution could be 0.5 ml. The incubation solution contained 180 μM of NADPH, 2μM of [1,2-^3 H]androstenedione, 150 μg of freeze dried human placental microsome, 25 μl of methanol and a test compound in various concentrations. Incubation was performed in the air at 37° C. for 20 minutes, the reaction was terminated with addition of 3 ml of chloroform, and the mixture was stirred for 40 seconds. The mixture was centrifuged at 700×g for 10 minutes, 0.3 ml of the aqueous solution was taken from the supernatant, the scintillation mixture was added, and the amount of ^3 H2 O formed was measured.

aromatase [2] = test: Assay of aromatase-inhibiting action (in vivo), inhibition of DHEAS-induced cornification of vaginal smear; set-up: species or system rat; conditions: for Inhibition rate (cornification-inhibiting action against cornification in the solvent administration group): mature female rats after enucleation of the pituitary gland, 2 mg/kg test compound orally with 16 mg/kg DHEAS once a day, 4 days, smears of day 3 to 5
Procedure: (2) Assay of aromatase-inhibiting action (in vivo)
Aromatase-inhibiting action was assayed according to the method developed by G. H. Deckers and A. H. W. M. Schuurs (Journal of Steroid Biochemistry,32, 625-631, (1989)).
Namely, groups of mature female rats at one week after enucleation of the pituitary gland were used, each group consisting of 8 to 10 animals. 16 mg/kg of dehydroepiandrosterone sulfate (DHEAS) and 5 ml/kg of a solvent (physiological saline containing 2% polysorbate 80), or DHEAS and 2 mg/kg of a test compound suspended in the solvent were orally administered to each rat once a day for the succeeding 4 days. For 6 days starting from the next day of the first administration, vaginal smear was sampled and observed by a microscope after being stained with Giemsa staining solution. Cornification of the vaginal smear with DHEAS was observed from 3 days after the first administration, and its action disappeared 6 days thereafter. Therefore, the cornification smear number was assumed to be the total of 3 days from the third day to fifth day after the initiation of administration. A cornification-inhibiting action with a test compound was expressed as the rate against cornification in the solvent administration group.
In this connection, the cornification of vaginal smear is caused by estrogens biosynthesized from DHEAS by aromatase, and therefore, when aromatase is inhibited, inhibition of cornification is observed.

[3] = 16 mg/kg DHEAS orally, once a day, rats

SMILES | IC50 (aromatase [1]) | Inhibition rate (cornification-inhibiting action against cornification in the solvent administration group) (aromatase [2]) | Cornification of the vaginal smear with DHEAS observed from (days after the first administration) (aromatase [2]; [3]) | disappearance of the cornification action of DHEAS (days thereafter) (aromatase [2]; [3])
C[C@]12CC[C@H]3[C@@H]([C@H](S)CC4=CC(=O)C=C[C@@]43C)[C@@H]1CCOC2 [Example 8, 7α-mercapto-D-homo-17-oxaandrosta-1,4-dien-3-one] | 400 nM | 68.2 ± 13.6% | – | –
CC(=O)S[C@H]1CC(=O)C=C2C[C@@H](SC(C)=O)[C@@H]3[C@H](CC[C@]4(C)C(=O)OCC[C@@H]34)[C@]21C [Example 43, 1α,7α-bis(acetylthio)-D-homo-17-oxaandrost-4-ene-3,17a-dione] | – | 70.6 ± 15.6% | – | –
C[C@]12CCC(=O)C=C1C[C@@H](Sc1ccc(N)cc1)[C@@H]1[C@@H]2CC[C@]2(C)C(=O)OCC[C@@H]12 [Example 1, 7α-[(4-aminophenyl)thio]-D-homo-17-oxaandrost-4-ene-3,17a-dione] | 2300 nM | – | – | –
C[C@]12C=CC(=O)C=C1C[C@@H](S)[C@@H]1[C@@H]2CC[C@]2(C)C(=O)OCC[C@@H]12 [Example 16, 7α-mercapto-D-homo-17-oxaandrosta-1,4-diene-3,17a-dione] | 500 nM | 70.6 ± 15.6% | – | –
C[C@]12CC[C@H](OS(=O)(=O)O)CC1=CC[C@@H]1[C@@H]2CC[C@]2(C)C(=O)CC[C@@H]12 [DHEAS, dehydroepiandrosterone sulfate, reference compound] | – | – | 3 days | 6 days
